# In patent publication US11766420B2 (priority 2015, dated 2023):
# Tested on: HEK293T cells
# Details: human
smiles,measurement,value
"COc1ncc(-c2ccc3nc(N)n(-c4ccc(N5CCOCC5)cc4)c3c2)cc1S(=O)(=O)Nc1ccccc1F [A1, 5-(2-amino-1-(4-(4-morpholinyl)phenyl)-1H-benzimidazol-6-yl)-N-(2-fluorophenyl)-2-methoxy-3-pyridinesulfonamide]",Concentration that killed most of the cells (MTT),≥ 250 nM
